From ChEMBL document CHEMBL5260810, “Inhibition of bromodomain-containing protein 9 for the prevention of epigenetically-defined drug resistance” (Bioorg Med Chem Lett, 2017)

How the values were obtained:
[1] = biological target: Adrenergic receptor alpha-2 (Rattus norvegicus) (UniProt P22086+P19328+P22909); experiment: Displacement of [3H]-RX 821002 from rat alpha2 adrenoceptor at 10 uM after 60 mins by scintillation counting analysis relative to control; type: protein assay
[2] = biological target: Receptor-type tyrosine-protein kinase FLT3 (Homo sapiens) (UniProt P36888); experiment: Inhibition of Flt3 (unknown origin) at 1 uM relative to control
[3] = Cytotoxicity against human SW527 cells measured after 8 days; type: functional, cell-based; details: SW527, 192 h
[4] = Cytotoxicity against human KE-97 cells measured after 8 days; type: functional, cell-based; details: KE-97, 192 h
[5] = biological target: RAC-alpha serine/threonine-protein kinase (Homo sapiens) (UniProt P31749); experiment: Inhibition of AKT1 (unknown origin) at 1 uM relative to control
Homo sapiens = species on record: Homo sapiens; experiment: Displacement of [3H]BRL 43694 from human recombinant 5-HT3 receptor at 10 uM after 120 mins by scintillation counting analysis relative to control
[6] = Cytotoxicity against human SK-MEL-23 cells measured after 8 days; type: functional, cell-based; details: SK-MEL-23, 192 h
ChaGo-K-1 = experiment: Cytotoxicity against human ChaGo-K-1 cells measured after 8 days; type: functional, cell-based; details: ChaGo-K-1, 192 h
[7] = Cytotoxicity against human NCI-H2373 cells measured after 8 days; type: functional, cell-based; details: NCI-H2373, 192 h
[8] = biological target: D(2) dopamine receptor (Homo sapiens) (UniProt P14416); experiment: Displacement of [3H]7-OH-DPAT from human recombinant dopamine D2S receptor at 10 uM after 60 mins by scintillation counting analysis relative to control
[9] = Cytotoxicity against human SNU-719 cells measured after 8 days; type: functional, cell-based; details: SNU-719, 192 h
HCC44 = experiment: Cytotoxicity against human HCC44 cells measured after 8 days; type: functional, cell-based; details: HCC44, 192 h
[10] = biological target: SWI/SNF-related matrix-associated actin-dependent regulator of chromatin subfamily A member 2 (Homo sapiens, UniProt P51531); experiment: Binding affinity to human partial length SMARCA2 (S1377 to Q1486 residues) expressed in bacterial expression system by BROMOscan assay
[11] = biological target: T1, Peroxisome proliferator-activated receptor gamma (Homo sapiens) (UniProt P37231); experiment: Inhibition of human PPARgamma at 10 uM relative to control
T1 sequence (whole entry): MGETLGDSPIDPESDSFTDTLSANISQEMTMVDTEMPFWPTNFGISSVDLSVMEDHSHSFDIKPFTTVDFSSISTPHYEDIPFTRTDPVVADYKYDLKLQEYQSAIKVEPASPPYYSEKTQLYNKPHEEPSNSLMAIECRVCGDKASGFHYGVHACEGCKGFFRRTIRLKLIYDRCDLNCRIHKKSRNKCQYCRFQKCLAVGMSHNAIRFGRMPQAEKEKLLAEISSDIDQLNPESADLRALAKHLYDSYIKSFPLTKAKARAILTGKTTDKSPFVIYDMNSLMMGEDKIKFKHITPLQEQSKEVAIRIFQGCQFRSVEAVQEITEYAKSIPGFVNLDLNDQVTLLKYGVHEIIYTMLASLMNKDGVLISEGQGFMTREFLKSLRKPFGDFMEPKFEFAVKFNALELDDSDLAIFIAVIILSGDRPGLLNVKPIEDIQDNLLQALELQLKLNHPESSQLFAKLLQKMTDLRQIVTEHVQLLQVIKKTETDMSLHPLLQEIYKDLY

[12] = Cytotoxicity against human COLO 206F cells measured after 8 days; type: functional, cell-based; details: 192 h
[13] = biological target: T2, ATPase family AAA domain-containing protein 2 (Homo sapiens, UniProt Q6PL18); experiment: Binding affinity to human partial length ATAD2A (Q981 to R1108 residues) expressed in bacterial expression system by BROMOscan assay
T2 sequence (Q6PL18 whole entry): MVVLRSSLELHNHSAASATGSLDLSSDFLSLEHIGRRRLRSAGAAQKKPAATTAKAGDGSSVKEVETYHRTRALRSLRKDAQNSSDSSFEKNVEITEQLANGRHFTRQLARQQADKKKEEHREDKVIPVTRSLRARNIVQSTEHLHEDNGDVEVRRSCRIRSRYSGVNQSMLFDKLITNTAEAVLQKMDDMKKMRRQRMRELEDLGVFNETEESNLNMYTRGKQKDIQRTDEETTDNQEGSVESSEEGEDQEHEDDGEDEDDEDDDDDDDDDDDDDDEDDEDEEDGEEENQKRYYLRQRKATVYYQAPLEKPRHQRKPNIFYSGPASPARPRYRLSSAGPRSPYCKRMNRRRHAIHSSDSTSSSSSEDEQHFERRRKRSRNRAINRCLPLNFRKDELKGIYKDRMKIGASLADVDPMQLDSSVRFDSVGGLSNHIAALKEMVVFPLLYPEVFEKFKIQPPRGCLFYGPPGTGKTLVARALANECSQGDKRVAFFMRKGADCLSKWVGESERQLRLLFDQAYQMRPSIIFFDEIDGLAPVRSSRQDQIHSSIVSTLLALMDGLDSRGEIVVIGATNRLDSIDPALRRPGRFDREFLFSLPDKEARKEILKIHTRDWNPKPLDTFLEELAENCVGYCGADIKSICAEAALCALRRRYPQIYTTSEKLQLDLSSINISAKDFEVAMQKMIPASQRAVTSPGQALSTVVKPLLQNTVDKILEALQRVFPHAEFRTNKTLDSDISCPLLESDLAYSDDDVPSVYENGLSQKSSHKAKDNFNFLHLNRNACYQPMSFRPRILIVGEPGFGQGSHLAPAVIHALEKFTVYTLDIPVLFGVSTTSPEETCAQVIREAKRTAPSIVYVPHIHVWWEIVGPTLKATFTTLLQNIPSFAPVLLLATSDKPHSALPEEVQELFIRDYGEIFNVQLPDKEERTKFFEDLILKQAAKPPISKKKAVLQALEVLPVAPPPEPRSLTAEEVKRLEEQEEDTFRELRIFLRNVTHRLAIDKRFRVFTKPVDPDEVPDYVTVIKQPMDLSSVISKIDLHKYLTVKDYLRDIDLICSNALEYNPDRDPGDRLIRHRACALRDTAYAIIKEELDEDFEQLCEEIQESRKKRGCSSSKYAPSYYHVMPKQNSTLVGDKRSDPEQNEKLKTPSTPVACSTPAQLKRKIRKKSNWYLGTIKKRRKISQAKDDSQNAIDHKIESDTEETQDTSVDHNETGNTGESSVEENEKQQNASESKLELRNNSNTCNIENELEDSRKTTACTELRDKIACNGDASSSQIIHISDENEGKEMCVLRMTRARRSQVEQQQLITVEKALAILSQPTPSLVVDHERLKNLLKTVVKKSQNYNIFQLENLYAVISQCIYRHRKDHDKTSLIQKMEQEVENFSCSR

[14] = biological target: Ribosomal protein S6 kinase alpha-2 (Homo sapiens) (UniProt Q15349); experiment: Inhibition of RSK3 (unknown origin) at 1 uM relative to control
[15] = biological target: Cyclin-dependent kinase 5/CDK5 activator 1 (Homo sapiens) (UniProt Q00535+Q15078); experiment: Inhibition of CDK5/p25 (unknown origin) at 1 uM relative to control; type: protein-complex assay
Sequence of Cyclin-dependent kinase 5/CDK5 activator 1 (Homo sapiens) (Q00535 whole entry): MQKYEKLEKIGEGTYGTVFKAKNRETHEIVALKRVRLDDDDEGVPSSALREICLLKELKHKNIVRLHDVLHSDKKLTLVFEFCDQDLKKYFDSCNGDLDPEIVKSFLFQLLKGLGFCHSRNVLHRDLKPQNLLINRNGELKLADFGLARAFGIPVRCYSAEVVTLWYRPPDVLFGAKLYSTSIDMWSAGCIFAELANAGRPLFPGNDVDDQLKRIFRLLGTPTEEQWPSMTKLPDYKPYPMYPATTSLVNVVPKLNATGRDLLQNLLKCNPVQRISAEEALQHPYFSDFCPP
Sequence of Cyclin-dependent kinase 5/CDK5 activator 1 (Homo sapiens) (Q15078 99-307 partner limits assumed): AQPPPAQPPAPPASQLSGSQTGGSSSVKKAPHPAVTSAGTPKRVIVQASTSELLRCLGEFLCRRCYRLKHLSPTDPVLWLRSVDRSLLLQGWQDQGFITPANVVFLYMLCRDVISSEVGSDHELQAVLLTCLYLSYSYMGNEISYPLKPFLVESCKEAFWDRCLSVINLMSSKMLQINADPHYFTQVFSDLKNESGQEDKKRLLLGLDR

Sequence of RAC-alpha serine/threonine-protein kinase (Homo sapiens) (P31749 whole entry): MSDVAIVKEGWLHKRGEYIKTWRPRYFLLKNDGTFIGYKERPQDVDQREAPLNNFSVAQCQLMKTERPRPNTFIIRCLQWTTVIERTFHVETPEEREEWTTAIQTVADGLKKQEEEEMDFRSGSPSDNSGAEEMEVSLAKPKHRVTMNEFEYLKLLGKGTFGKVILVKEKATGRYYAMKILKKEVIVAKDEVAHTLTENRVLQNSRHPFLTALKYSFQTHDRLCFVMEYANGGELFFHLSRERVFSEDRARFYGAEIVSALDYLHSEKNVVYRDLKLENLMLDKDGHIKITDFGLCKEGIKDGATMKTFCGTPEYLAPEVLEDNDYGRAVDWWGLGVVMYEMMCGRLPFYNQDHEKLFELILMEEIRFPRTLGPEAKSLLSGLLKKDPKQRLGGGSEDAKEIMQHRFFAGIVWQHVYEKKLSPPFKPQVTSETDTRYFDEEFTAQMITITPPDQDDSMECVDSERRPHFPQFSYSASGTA
Sequence of D(2) dopamine receptor (Homo sapiens) (P14416 whole entry): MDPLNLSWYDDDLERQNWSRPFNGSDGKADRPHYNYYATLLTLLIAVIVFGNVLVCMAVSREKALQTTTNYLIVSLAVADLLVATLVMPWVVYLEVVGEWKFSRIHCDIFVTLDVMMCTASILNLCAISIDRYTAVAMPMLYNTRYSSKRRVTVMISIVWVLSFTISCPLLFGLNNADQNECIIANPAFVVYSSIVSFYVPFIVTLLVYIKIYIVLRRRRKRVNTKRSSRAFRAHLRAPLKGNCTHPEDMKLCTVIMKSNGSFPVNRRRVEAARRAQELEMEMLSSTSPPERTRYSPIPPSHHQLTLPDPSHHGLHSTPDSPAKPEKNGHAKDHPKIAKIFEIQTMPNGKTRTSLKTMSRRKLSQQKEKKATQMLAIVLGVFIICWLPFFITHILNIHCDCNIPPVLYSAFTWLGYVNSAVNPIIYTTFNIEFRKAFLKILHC
Sequence of Ribosomal protein S6 kinase alpha-2 (Homo sapiens) (Q15349 whole entry): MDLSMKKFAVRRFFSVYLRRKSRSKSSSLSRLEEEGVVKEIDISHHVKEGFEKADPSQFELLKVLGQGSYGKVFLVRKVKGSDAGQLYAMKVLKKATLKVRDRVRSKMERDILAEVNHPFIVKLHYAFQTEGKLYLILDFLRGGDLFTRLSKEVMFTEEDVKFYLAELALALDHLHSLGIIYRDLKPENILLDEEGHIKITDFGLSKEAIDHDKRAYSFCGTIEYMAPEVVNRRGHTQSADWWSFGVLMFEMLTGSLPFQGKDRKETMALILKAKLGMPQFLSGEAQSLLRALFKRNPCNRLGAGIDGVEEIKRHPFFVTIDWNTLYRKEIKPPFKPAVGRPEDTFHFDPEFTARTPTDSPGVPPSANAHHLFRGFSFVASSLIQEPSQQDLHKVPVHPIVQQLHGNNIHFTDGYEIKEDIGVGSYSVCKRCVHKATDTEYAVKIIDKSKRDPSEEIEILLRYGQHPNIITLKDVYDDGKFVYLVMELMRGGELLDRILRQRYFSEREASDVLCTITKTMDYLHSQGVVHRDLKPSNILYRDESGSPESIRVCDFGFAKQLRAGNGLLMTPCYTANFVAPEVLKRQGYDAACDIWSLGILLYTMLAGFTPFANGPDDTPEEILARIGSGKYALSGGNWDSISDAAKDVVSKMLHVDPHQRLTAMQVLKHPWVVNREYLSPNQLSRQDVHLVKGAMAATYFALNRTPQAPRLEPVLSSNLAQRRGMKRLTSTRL
Sequence of Receptor-type tyrosine-protein kinase FLT3 (Homo sapiens) (P36888 whole entry): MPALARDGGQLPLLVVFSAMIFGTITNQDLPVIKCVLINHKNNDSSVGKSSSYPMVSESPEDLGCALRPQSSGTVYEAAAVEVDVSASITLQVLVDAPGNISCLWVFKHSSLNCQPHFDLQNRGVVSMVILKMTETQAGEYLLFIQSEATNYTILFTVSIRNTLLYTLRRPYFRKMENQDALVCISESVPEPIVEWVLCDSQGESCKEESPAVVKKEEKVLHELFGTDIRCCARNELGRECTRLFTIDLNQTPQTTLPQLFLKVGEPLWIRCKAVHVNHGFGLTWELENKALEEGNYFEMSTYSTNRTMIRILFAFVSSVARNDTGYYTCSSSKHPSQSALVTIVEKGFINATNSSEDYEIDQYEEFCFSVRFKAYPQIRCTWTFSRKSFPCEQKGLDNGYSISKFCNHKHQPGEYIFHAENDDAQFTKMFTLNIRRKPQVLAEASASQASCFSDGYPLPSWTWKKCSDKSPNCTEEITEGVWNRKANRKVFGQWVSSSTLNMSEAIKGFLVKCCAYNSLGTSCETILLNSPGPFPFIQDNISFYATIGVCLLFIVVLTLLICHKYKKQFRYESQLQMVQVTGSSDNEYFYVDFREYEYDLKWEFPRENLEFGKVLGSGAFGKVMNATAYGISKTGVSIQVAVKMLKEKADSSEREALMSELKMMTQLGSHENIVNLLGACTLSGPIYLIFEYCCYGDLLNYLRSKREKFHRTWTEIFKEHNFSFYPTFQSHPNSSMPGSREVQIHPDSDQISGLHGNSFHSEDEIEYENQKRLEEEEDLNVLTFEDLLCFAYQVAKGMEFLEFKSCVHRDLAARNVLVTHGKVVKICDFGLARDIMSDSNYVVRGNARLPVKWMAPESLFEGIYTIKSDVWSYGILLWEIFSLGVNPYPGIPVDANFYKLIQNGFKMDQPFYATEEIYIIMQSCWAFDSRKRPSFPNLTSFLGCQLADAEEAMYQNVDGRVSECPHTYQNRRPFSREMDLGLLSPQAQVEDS
Sequence of SWI/SNF-related matrix-associated actin-dependent regulator of chromatin subfamily A member 2 (P51531 whole entry, the tested form may be a part): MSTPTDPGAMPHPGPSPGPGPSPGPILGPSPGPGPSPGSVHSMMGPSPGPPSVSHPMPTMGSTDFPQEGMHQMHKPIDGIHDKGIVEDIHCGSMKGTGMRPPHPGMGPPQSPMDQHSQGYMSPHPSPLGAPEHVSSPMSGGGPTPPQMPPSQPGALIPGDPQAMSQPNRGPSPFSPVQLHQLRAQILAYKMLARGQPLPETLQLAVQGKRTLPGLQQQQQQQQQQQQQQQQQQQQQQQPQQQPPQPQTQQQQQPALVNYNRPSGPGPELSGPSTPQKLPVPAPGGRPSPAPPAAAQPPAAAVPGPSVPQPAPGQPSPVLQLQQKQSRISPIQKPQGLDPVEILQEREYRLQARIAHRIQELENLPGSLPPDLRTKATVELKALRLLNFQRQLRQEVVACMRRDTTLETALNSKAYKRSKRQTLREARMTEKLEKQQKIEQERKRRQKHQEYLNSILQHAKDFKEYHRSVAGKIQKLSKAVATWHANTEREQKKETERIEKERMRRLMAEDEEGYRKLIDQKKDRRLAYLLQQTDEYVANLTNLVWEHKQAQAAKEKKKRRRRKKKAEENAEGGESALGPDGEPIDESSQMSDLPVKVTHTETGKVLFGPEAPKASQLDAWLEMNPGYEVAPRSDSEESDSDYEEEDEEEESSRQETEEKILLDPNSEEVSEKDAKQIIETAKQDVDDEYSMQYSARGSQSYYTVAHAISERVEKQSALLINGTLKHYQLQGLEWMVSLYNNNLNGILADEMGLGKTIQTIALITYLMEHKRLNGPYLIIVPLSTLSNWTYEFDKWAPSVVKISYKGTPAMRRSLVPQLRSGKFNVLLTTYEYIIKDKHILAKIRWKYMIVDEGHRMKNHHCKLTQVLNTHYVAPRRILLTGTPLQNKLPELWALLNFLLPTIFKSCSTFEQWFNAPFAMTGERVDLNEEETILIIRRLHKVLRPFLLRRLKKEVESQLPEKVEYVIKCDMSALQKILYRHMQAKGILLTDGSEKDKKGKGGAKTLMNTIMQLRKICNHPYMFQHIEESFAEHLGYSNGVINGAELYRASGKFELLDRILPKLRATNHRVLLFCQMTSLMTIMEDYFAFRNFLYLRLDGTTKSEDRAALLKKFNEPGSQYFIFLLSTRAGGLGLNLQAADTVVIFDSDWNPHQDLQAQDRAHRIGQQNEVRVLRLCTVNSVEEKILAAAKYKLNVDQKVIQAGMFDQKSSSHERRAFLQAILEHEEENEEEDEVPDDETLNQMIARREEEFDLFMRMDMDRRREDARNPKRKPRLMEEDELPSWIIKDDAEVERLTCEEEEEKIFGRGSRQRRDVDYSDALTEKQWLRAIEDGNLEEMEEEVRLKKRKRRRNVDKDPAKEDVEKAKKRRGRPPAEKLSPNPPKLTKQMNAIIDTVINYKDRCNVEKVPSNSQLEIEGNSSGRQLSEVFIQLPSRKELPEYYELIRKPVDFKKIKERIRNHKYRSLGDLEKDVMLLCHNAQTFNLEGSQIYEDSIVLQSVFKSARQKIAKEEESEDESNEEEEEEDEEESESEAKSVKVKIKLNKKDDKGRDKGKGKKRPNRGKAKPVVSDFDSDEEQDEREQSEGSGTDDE

| SMILES | Activity [1] | inhibition [2] | IC50 [3] | IC50 [4] | inhibition [5] | Activity (Homo sapiens) | IC50 [6] | IC50 (ChaGo-K-1) | IC50 [7] | Activity [8] | IC50 [9] | IC50 (HCC44) | Kd [10] | inhibition [11] | IC50 [12] | Kd [13] | inhibition [14] | inhibition [15] |
| --- | --- | --- | --- | --- | --- | --- | --- | --- | --- | --- | --- | --- | --- | --- | --- | --- | --- | --- |
| C/C=C/Cn1cc(-c2cc(OC)c(C(=O)N3CCOCC3)cc2OC)c2cc(C)[nH]c2c1=O | -12% | 6% | 2 µM | 2 µM | 1.5% | -5% | 2 µM | 2 µM | 2 µM | 13% | 2 µM | 2 µM | > 10 µM | 9% | 2 µM | > 10 µM | 3.5% | 0% |
| C/C=C/Cn1cc(-c2ccc(C(C)(C)O)cc2OC)c2cc[nH]c2c1=O | -1% | 15% | 20 µM | 20 µM | 2.5% | -6% | 20 µM | 20 µM | 20 µM | 6% | 20 µM | 20 µM | > 10 µM | 18% | 20 µM | > 10 µM | 5.5% | -0.5% |
| C/C=C/Cn1cc(-c2ccc(C(=O)N3CCOCC3)cc2)c2cc[nH]c2c1=O | -7% | 4.4% | 20 µM | 20 µM | -2.1% | -5% | 20 µM | 20 µM | 20 µM | -3% | 20 µM | 20 µM | > 10 µM | 49% | 20 µM | > 10 µM | -4.3% | -1.5% |
| C/C=C/Cn1cc(-c2cc(OC)c(C(C)(C)O)cc2OC)c2cc(C)[nH]c2c1=O | – | – | – | – | – | – | – | – | – | – | – | – | > 10 µM | – | – | 9.3 µM | – | – |
